Data reported in patent US20260373248A1, “DEGRADABLE PEPTOIDS” (Medici Therapeutics, Inc., priority 2023, published 2026).
Non-standard residues stand in square brackets, D forms with d. Residues, ends and D or L forms follow the SMILES beside them. *: point of attachment. Gly(N-(3-decanoyloxypropyl)) = CCCCCCCCCC(=O)OCCCNCC(=O)O; Gly(N-(CH2)3O-octanoyl) = CCCCCCCC(=O)OCCCNCC(=O)O; Gly(N-3-morpholinopropyl) = O=C(O)CNCCCN1CCOCC1; N(2-ethylhexyl)Gly = CCCCC(CC)CNCC(=O)O; Gly(N-dodecyl) = CCCCCCCCCCCCNCC(=O)O; For = O=C*

Experiments:
[1] = system: luciferase; experiment: Luciferase expression after local (intramuscular or subcutaneous) administration of mRNA; format: in vivo; conditions: mRNA 0.01 mpk, 6 hours; for IM Flux: intramuscular; for SC Flux: subcutaneous
Procedure, shortened: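 Female Balb/c mice (6-8 weeks) received fLuc mRNA in aminolipidated peptoid Nutshells at 0.01 mpk subcutaneously or intramuscularly, or 0.1 mpk intratumorally. At 6 hours, anesthetized mice were given D-luciferin IP and imaged 10 minutes later; harvested organs were also imaged and total photon flux quantified in regions of interest.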

[2] = Delivery vehicle size and polydispersity by dynamic light scattering; format: physicochemical
Procedure, shortened: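 LNPs made by microfluidic mixing of ethanolic peptoid/DSPC/cholesterol/DMG-PEG2000 (20:1.79:7.16:1.84 by weight) with mRNA in 10 mM citrate pH 5.0 at 1:3 by volume, then dialyzed overnight at 4 °C against tris-sucrose pH 7.4. Size and PDI read by dynamic light scattering in PBS.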

[3] = system: hEPO; experiment: Quantification of hEPO in serum after IV injection of mRNA (Human EPO ELISA); format: in vivo; conditions: Balb/c mice, 2.5 μg mRNA IV, serum after 6 hours
Procedure, shortened: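 Balb/c mice received 2.5 μg mRNA encoding human EPO by IV injection; serum was collected after 6 hours. hEPO was measured by sandwich ELISA (biotin-conjugate, streptavidin-HRP, TMB, A450) against kit standards (mIU/mL) and an external standard (ng/mL), with values interpolated and corrected for dilution.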

[4] = system: mRNA; experiment: mRNA encapsulation (modified Quant-iT RiboGreen assay); format: physicochemical; conditions: for mean percent encapsulation of RNA: RiboGreen, without vs with Triton X-100; for % Encapsulation: mRNA
Procedure, shortened: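 Peptoid nanoparticles were incubated with Triton X-100 for 10 min to release entrapped mRNA, then mixed with RiboGreen reagent and read by fluorescence (ex 485 nm/em 530 nm). Percent encapsulation was derived from the ratio of fluorescence without versus with Triton X-100.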

[5] = system: firefly luciferase; experiment: In vivo firefly luciferase expression after intravenous injection of fLuc mRNA delivery vehicles (IVIS imaging); parameters: species or system female Balb/c mice; conditions: for Total Flux (luciferase expression): fLuc mRNA, intravenous, Balb/c mice; for Total Flux: mice, 2.5 ug fLuc mRNA intravenously, 6 hours post-injection
Procedure, shortened: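 Female Balb/c mice (6-8 weeks) given 2.5 ug fLuc mRNA in Nutshells IV. At 6 hours, IP D-luciferin (30 mg/mL, 10 μL/g) under isoflurane; IVIS imaging 10 minutes later, then harvested organs imaged ex vivo. Read-out: total photon flux in regions of interest.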

[6] = Peptoid quantity remaining in liver by HPLC-TOF mass spectrometry; format: in vivo; conditions: liver homogenate
Procedure, shortened: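 Whole liver weighed; 20 mg tissue bead-homogenized in IPA/MeOH (8/2) with internal standard, centrifuged, supernatant run on BEH C8 HPLC-TOF MS. Peptoid concentration derived from linear calibration curve (0.2-50 μg/g) prepared in spiked untreated liver.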

[7] = DLS in PBS, peptoid:DSPC:Cholesterol:DMG-PEG2000 weight ratio 20:1.79:7.16:1.84, mRNA

SMILES | IM Flux [1] [p/s] | SC Flux [1] [p/s] | PDI [2, 7] | Particle Size [2, 7] [nm] | Particle Size ([2]; formulation recipe R5) [nm] | hEPO [3] [ng/mL] | mean percent encapsulation of RNA [4] [%] | % Encapsulation ([4]; formulation recipe R5) [%] | Total Flux (luciferase expression) ([5]; formulation recipe R5) [p/s] | Total Flux [5] [p/s] | % of injected dose remaining in liver [6] [%] | Particle Size ([2]; formulation recipe F2) [nm] | % Encapsulation ([4]; formulation recipe F2) [%] | Total Flux (luciferase expression) ([5]; formulation recipe F2) [p/s]
CCCCCCCCCC(=O)OCCCN(C=O)CC(=O)N(CCCOC(=O)CCCCCCCCC)CC(=O)N(CC(=O)N(CCCN1CCOCC1)CC(=O)N(CCCOC(=O)CCCCCCCCC)CC(=O)N(CCCOC(=O)CCCCCCCCC)CC(=O)N(CC(N)=O)CC(CC)CCCC)CC(CC)CCCC (stereo not shown) [Compound 112] (For-[Gly(N-(3-decanoyloxypropyl))][Gly(N-(3-decanoyloxypropyl))][N(2-ethylhexyl)Gly][Gly(N-3-morpholinopropyl)][Gly(N-(3-decanoyloxypropyl))][Gly(N-(3-decanoyloxypropyl))][N(2-ethylhexyl)Gly]-NH2) | 1.80E+08 | 2.33E+08 | 0.138 | 95.4 | 87.6 | 345 | 39.2 | 71.6 | 2.67E+08 | 1.13E+09 | 0.19 | – | – | –
CCCCCCCCCCCCN(C=O)CC(=O)N(CCCOC(=O)CCCCCCC)CC(=O)N(CC(=O)N(CCCN1CCOCC1)CC(=O)N(CC(=O)N(CCCOC(=O)CCCCCCC)CC(=O)N(CCCCCCCCCCCC)CC(N)=O)CC(CC)CCCC)CC(CC)CCCC (stereo not shown) [Compound 116] (For-[Gly(N-dodecyl)][Gly(N-(CH2)3O-octanoyl)][N(2-ethylhexyl)Gly][Gly(N-3-morpholinopropyl)][N(2-ethylhexyl)Gly][Gly(N-(CH2)3O-octanoyl)][Gly(N-dodecyl)]-NH2) | 7.83E+07 | 3.53E+08 | 1.000 | 88.9 | – | 269 | 32.6 | – | – | 3.82E+09 | 15.67 | 71.4 | 67.8 | 1.60E+09
